# In patent publication US20210052600A1, “THERAPEUTIC AGENTS FOR STRESS URINARY INCONTINENCE AND INCOTINENCE OF FECES” (Takeda Pharmaceutical Company Limited, priority 2017, published 2021):
# Key:
# [1] = Plasma concentrations in rats 30 minutes after oral administration (effective plasma concentration at LPP10); settings: rat; measured concentration multiplied by ratio between dosage used and LPP10
# Description: (§1) Ten female rats of SD strain were anesthetized with isoflurane. In order to secure the same conditions as those for drug-administered animals, their spinal cord was transected at the T8-T9 (the eighth thoracic cord—the ninth thoracic cord) level. Then, a cannula for blood collection was inserted into the femoral artery. […] These drugs were each dissolved in 0.5% MC. Thirty minutes after oral administration, up to 250 μL of blood was collected from the femoral artery or the tail vein and treated with heparin. The collected blood was immediately cooled on ice and centrifuged under conditions involving 3,000 rpm and 4° C. for 10 minutes to obtain plasma. The plasma samples were stored under conditions of −80° C. until drug quantification.
# (§2) After thawing of the plasma samples, the internal standard compound was added thereto, and the mixture was then centrifuged under conditions of 5,250 rpm. The drug contained in 60 μL of the supernatant was quantified by LC-MS/MS.
# [2] = Comparison of plasma concentrations for urethra-closing effect and anti-obesity effect (analysis of Examples 1-9 and literature); settings: free form; extrapolated, 3.3-fold less than rat 670 ng/mL
# [3] = rat, in vivo, 2.5 mg/kg
# Description: as §1, §2
smiles,measurement,setting,value
"CC(C)N(C)c1cnc2c(n1)OCCNC2.Cl [Compound A, N-methyl-N-(1-methylethyl)-6,7,8,9-tetrahydropyrazino[2,3-f][1,4]oxazeine-3-amine]",plasma concentration at LPP10,[1],61 ng/mL
same,average plasma concentration in a day (steady state) giving a body weight lowering effect greater than placebo by 3.8% in humans,[2],203 ng/mL
same,plasma concentration 30 minutes after oral administration,[3],94.8 ± 24.1 ng/mL
